{"source": "patent US9309254B2", "about": "“Pyrimidinyl-diazospiro compounds” (CONVERGENCE PHARMACEUTICALS LIMITED, priority 2012, dated 2016)", "molecular_target": "T1, hNaV1.7 (Homo sapiens, UniProt Q15858)", "T1 construct": "expressed in transfected cells; host or cells: HEK293", "T1 sequence (Q15858 whole entry)": "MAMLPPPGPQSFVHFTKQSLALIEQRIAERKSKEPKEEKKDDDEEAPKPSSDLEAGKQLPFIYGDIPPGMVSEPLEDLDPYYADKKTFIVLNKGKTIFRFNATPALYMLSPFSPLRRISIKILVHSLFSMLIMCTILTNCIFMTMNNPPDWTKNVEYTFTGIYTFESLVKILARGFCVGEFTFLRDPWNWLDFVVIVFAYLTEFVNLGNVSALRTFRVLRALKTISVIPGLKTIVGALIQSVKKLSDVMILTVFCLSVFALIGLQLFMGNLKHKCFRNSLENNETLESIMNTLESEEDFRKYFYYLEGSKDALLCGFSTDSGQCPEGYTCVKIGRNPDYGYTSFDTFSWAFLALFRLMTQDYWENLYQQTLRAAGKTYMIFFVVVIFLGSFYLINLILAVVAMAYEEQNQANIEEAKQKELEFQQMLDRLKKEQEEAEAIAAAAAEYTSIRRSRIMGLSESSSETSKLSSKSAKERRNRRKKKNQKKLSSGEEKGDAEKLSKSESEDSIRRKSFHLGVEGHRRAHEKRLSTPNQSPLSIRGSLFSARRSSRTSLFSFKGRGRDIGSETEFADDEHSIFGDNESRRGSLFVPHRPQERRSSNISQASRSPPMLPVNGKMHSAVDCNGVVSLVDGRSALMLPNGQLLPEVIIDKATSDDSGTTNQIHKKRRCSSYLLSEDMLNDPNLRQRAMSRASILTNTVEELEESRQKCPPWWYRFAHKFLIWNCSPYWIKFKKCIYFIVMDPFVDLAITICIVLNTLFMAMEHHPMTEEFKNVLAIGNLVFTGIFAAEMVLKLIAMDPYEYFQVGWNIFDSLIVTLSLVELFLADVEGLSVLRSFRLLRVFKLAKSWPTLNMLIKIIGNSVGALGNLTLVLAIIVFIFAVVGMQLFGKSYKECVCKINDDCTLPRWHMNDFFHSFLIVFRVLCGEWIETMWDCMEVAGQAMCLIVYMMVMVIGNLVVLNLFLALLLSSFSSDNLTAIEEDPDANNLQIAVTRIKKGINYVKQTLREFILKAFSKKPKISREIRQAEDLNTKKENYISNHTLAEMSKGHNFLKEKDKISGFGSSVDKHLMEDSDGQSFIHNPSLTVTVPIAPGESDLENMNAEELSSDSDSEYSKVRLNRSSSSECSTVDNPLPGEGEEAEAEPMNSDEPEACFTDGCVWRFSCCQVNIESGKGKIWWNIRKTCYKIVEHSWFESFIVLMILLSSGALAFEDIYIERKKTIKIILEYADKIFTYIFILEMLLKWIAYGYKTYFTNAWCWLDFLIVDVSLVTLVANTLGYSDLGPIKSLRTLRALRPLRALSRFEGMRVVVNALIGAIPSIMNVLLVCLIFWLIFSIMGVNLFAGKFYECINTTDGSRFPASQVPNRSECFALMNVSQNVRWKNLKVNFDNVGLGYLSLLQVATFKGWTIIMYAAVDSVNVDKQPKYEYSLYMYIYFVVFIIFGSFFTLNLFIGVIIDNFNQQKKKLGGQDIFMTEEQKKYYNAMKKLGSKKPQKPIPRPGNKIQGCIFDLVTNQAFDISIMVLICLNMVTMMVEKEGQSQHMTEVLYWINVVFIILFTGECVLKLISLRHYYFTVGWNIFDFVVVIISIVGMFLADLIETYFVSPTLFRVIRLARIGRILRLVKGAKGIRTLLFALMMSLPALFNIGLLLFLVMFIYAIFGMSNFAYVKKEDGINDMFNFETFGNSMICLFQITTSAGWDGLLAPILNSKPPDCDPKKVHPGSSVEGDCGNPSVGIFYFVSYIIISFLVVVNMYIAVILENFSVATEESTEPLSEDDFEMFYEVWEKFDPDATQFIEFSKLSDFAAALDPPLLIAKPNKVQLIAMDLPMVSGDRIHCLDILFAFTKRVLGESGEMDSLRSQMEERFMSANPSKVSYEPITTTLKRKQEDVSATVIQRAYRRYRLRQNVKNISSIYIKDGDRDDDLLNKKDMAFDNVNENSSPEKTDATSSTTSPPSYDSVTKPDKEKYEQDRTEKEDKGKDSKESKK", "test": "QPatch NaV1.7 assay", "assay_type": "cell-based", "conditions": "HEK293-hNaV1.7 cells, QPatch16x", "description": "The compounds of the invention were tested in a QPatch NaV1.7 assay.\nHEK293-hNaV1.7 cells were grown in DMEM-F12+10% FBS culture media at 37° C. At a confluency of 50-70% cells were dissociated from culture flasks & triturated to ensure unicellular cell suspension; cell density was measured & adjusted to 2-3×10^6 cells/ml. Recordings were obtained using QPatch16x. The external solution was (in mM): NaCl, 128; KCl, 5; MgCl2, 2; CaCl2, 2; Glucose, 30; HEPES, 15; pH 7.3, 305-315 mOsm. Following seal formation and whole-cell access using internal solution (containing in mM: CsF, 135; EGTA/CsOH, 1/5; HEPES 10; NaCl, 10; pH 7.3, 310-320mOsM), voltage pulse protocols were applied. Initially a steady state inactivation voltage protocol was used to determine the half-maximal voltage for steady state inactivation (V1/2 SSI). Two holding voltages were used to determine test drug inhibition: −90 mV, where most of the channels are in a closed state; and V1/2 SSI, where half of the channels are inactivated. Currents were elicited every 10 seconds by stepping to a membrane potential of 0 mV for 20 ms. Four-point cumulative concentration responses were derived by determining the peak current amplitude at each concentration of test drug over 120 second application. Curves were fitted with the Hill equation yielding pIC50 values at −90 mV and V1/2 SSI holding potentials.", "key": {"[1]": {"conditions": "holding voltage V1/2 SSI, where half of the channels are inactivated, read-out: QP Nav1.7 SSI vhalf pIC50 (converted)"}, "[2]": {"conditions": "holding voltage −90 mV, where most of the channels are in a closed state, read-out: QP Nav1.7 - 90 mV pIC50 (converted)"}}, "note": "Where a name gives a salt, the structure may show the parent alone. Read-outs that look alike come from different tables or passages of the source.", "data": [{"smiles": "CN1CC[C@]2(CC[C@H](c3nccc(-c4ccc(C(F)(F)F)cc4)n3)N2)C1=O", "note": "[Example 4, (2R,5R)-7-Methyl-2-[4-[4-(trifluoromethyl)-phenyl]-pyrimidin-2-yl]-1,7-diazaspiro[4.4]nonan-6-one hydrochloride]", "values": [{"measurement": "IC50", "setting": "[1]", "value": 39.8, "unit": "µM"}, {"measurement": "IC50", "setting": "[2]", "value": 251, "unit": "µM"}]}, {"smiles": "CN1CC[C@]2(CC[C@@H](c3nccc(-c4cccc(OC(F)(F)F)c4)n3)N2)C1=O", "note": "[Example 20, (2S,5R)-7-Methyl-2-[4-[3-(trifluoromethoxy)phenyl]pyrimidin-2-yl]-1,7-diazaspiro[4.4]nonan-6-one hydrochloride]", "values": [{"measurement": "IC50", "setting": "[1]", "value": 25.1, "unit": "µM"}, {"measurement": "IC50", "setting": "[2]", "value": 200, "unit": "µM"}]}, {"smiles": "Cc1cc(-c2ccc(OC(F)(F)F)cc2)nc([C@@H]2CC[C@@]3(CCN(C)C3=O)N2)n1", "note": "[Example 28, (2S,5S)-7-Methyl-2-[4-methyl-6-[4-(trifluoromethoxy)phenyl]pyrimidin-2-yl]-1,7-diazaspiro[4.4]nonan-6-one hydrochloride]", "values": [{"measurement": "IC50", "setting": "[1]", "value": 50.1, "unit": "µM"}, {"measurement": "IC50", "setting": "[2]", "value": 631, "unit": "µM"}]}, {"smiles": "Cc1cc(-c2ccc(C(F)(F)F)cc2)nc([C@@H]2CC[C@@]3(CC(C)(C)NC3=O)N2)n1", "note": "[Example 44, (2S,5S)-8,8-Dimethyl-2-[4-methyl-6-[4-(trifluoromethyl)phenyl]pyrimidin-2-yl]-1,7-diazaspiro[4.4]nonan-6-one hydrochloride]", "values": [{"measurement": "IC50", "setting": "[1]", "value": 39.8, "unit": "µM"}, {"measurement": "IC50", "setting": "[2]", "value": 158, "unit": "µM"}]}]}
